{"source": "patent US11865098B1", "about": "“Methods and compositions for treating excessive sleepiness” (Axsome Malta Ltd., priority 2017, dated 2024)", "system": "adults with OSA and excessive sleepiness", "test": "Safety and tolerability (TEAEs), phase 3 randomized withdrawal study in OSA", "type": "in vivo, human", "protocol": "The study was a double-blind, placebo-controlled, enriched, randomized withdrawal design (FIG. 1). In the Titration Phase (weeks 1-2), patients started on a once-daily dose of APC 75 mg and could be titrated up or down every 3 days to reach a maximum tolerated dose of APC 75, 150, or 300 mg. In the Stable-Dose Phase (weeks 3-4), patients continued to receive the dose that they were titrated to in the Titration Phase for 2 weeks. In the Double-Blind Withdrawal Phase (weeks 5-6), patients who reported “much” or “very much” improvement on the Patient Global Impression of Change (PGI-C) scale (Guy W. ECDEU assessment manual for psychopharmacology, revised. US Department of Health, Education, and Welfare publication (ADM 76-338). Rockville, MD: National Institute of Mental Health; 1976), and who had improved on the Maintenance of Wakefulness Test (MWT) and Epworth Sleepiness Scale (ESS) (Johns, Sleep 14(6):540 (1991)) at week 4 were randomized 1:1 to receive the same current dose of JZP-110 or placebo for 2 weeks.\nMWT and ESS data were analyzed using a mixed-effect model repeated measures (MMRM); PGI-C and CGI-C were evaluated using a chi-square test. […] Safety and tolerability were evaluated based on treatment-emergent adverse events (TEAEs), vital signs, and laboratory values.", "key": {"[1]": {"conditions": "Randomized Withdrawal Phase, all JZP-110 doses (n = 62)"}, "[2]": {"conditions": "Stable-Dose Phase, all JZP-110 doses (n = 157)"}}}
{"molecule": "NC(=O)OC[C@H](N)Cc1ccccc1", "note": "[JZP-110, (R)-2-amino-3-phenylpropyl carbamate]", "values": [{"measurement": "Any TEAE, incidence", "setting": "[1]", "result": "ρ 18 (29.0) n (%)"}, {"measurement": "Aphthous stomatitis, incidence", "setting": "[1]", "result": "ρ 1 (1.6) n (%)"}, {"measurement": "Cough, incidence", "setting": "[1]", "result": "ρ 1 (1.6) n (%)"}, {"measurement": "Nasopharyngitis, incidence", "setting": "[1]", "result": "ρ 3 (4.8) n (%)"}, {"measurement": "Serious TEAEs, incidence", "setting": "[1]", "result": "ρ 0 n (%)"}, {"measurement": "TEAEs leading to withdrawal, incidence", "setting": "[1]", "result": "ρ 0 n (%)"}, {"measurement": "Upper respiratory tract infection, incidence", "setting": "[1]", "result": "ρ 1 (1.6) n (%)"}, {"measurement": "Diarrhea, incidence", "setting": "[2]", "result": "ρ 0 n"}, {"measurement": "Dyspepsia, incidence", "setting": "[2]", "result": "ρ 0 n"}, {"measurement": "Serious TEAE, incidence", "setting": "[2]", "result": "ρ 0 n"}, {"measurement": "TEAE leading to withdrawal, incidence", "setting": "[2]", "result": "ρ 0 n"}, {"measurement": "Any TEAE, incidence", "setting": "Stable-Dose Phase, all JZP-110 doses (n = 157), listed as APC", "result": 10.2, "unit": "%"}, {"measurement": "Serious TEAE, incidence", "setting": "Titration Phase, all JZP-110 doses (n = 174)", "result": "ρ 0 n"}, {"measurement": "Any TEAE, incidence", "setting": "Titration Phase, all JZP-110 doses (n = 174), listed as APC", "result": 48.9, "unit": "%"}, {"measurement": "Rebound hypersomnia or withdrawal effects after abrupt discontinuation", "setting": "placebo group in the Randomized Withdrawal Phase", "result": "no evidence of rebound hypersomnia or withdrawal effects"}, {"measurement": "Serious TEAEs in the study", "setting": "whole study", "result": "no serious TEAEs"}]}
